1 compound from publication PMC5708526, “Targeting secondary protein complexes in drug discovery: studying the druggability and chemical biology of the HSP70/BAG1 complex” (Chemical Communications (Cambridge, England), 2017) can be followed below.

For one assay, the target named is T1, HSP72/BAG1 complex (Homo sapiens, UniProt P0DMV8).
T1 construct: purchased Enzo Life Sciences (BAG-1M only)
As to the kind of experiment: FP probe KD determination with BAG1. It counts as binding. Here is the method: To assess what effect the secondary HSP72/BAG1 complex had on the apparent affinity of the non-nucleotide bisaryl-ATTO-488 FP-probe 11, we carried out a similar BAG1 study. […] To confirm that the binding of BAG1 to HSP72 was not mutually exclusive, we screened the nucleotides ADP and ATP in a competition assay with bisaryl-ATTO-488 11 and HSP72 at a 50% bound fraction, with and without a saturating concentration of BAG1 (700 nM) (Fig. S7, ESI ^†). […]
mM TRIS base pH 7.4, 100 mM NaCl, 1 mM DTT, 1% (v/v) glycerol) or BAG1 replacement buffer (5 μL, 20 mM TRIS base pH 7.4, 100 mM NaCl, 1 mM DTT, 1% (v/v) glycerol) was added to the corresponding wells of the assay plate. Fluorescence polarisation values for probe and HSP72 ± BAG1 were plotted using GraphPad prism 6.
KD determination with BAG1: To each well, 5 μL containing probe molecule (20 nM in assay buffer) and BAG1 protein (1.4 μM in assay buffer) and increasing concentrations of HSP70 protein (5 μL, two-fold dilution series) were added. Fluorescence polarisation values for tracer control wells (10 nM probe in assay buffer only) were subtracted from each data point prior to data analysis. KD determination was performed using non-linear regression analysis (GraphPad Prism 6, one site–specific binding […]

A further assay concerns the target T2, HSP72 (Homo sapiens, UniProt P0DMV8).
T2 construct: made in house
Nature of the assay: FP assay binding window and Z' determination. An excerpt: As a result, the assay was not statistically robust, so could not be used in competition experiments (Z′ = 0.36).[11],[20],[21] We hypothesised that the high lipophilicity of 10 (clog P = 6.9) was causing the small binding window, either due to aggregation, even at very low concentrations, or its large hydrate volume.[22] Because the lipophilicity of the specific-ligand portion of the probe was fixed by the need for high affinity to the HSP70 target, we focused on changes to the solvent exposed fluorophore. ATTO-488, a green-shifted fluorophore that contains two sulfonic acid groups, was selected as an alternative to fluorescein (see ESI ^†), as this reduced the clog P of the bisaryl probe 11 to –3.9.[21] The binding window of ATTO-488 bisaryl FP-probe 11 measured at a fixed and apparently saturating concentration of HSP72 (5 μM), was now greater than 150 mP (Z′ = 0.63, Fig. 3A and Fig. S1, ESI ^†). […]
TRIS Tris(hydroxymethyl)aminomethane
General Information: Unless otherwise stated the aqueous assay buffer contained 50 mM TRIS base pH 7.4, 150 mM NaCl, 6 mM MgCl2, 1 mM DTT, 0.1% (wt/wt) CHAPS. The assay was conducted using 384 Plus F ProxiPlates (PerkinElmer) with a final assay volume of 10 μL. Plates were centrifuged at 1000 rpm for 1 minute prior to incubation and read using an 2103 Envision Multilable Plate Reader. Excitation and emission wavelengths used for green probes were 480 nm and 535 nm, respectively.
Fluorescence polarisation was measured in units of millipolarization (mP). All experiments were performed in triplicate, unless otherwise stated. Data were plotted and analysed using GraphPad Prism 6, graphical data represents the mean ± standard error of the mean for a single representative experiment. ATP-derived fluorescent probes (1.0 mM in aqueous) were purchased from Jena Bioscience. Human BAG-1M (10.9 μM in 20 mM TRIS base pH 7.4, 100 mM NaCl, 1 mM DTT, 1% (v/v) glycerol) was purchased from Enzo Life Sciences.
Determination of optimal probe concentration: To each well, 5 μL of HSP72 (10 µM in assay buffer) or 5 μL assay buffer and increasing concentrations of probe (5 μL, two-fold dilution series) were added. Fluorescence polarisation values for the tracer ± protein were plotted using GraphPad prism 6. […]
Z’ determination: To each well, 5 µL of probe (20 nM in assay buffer) and either 5 µL of HSP70 (in assay buffer) or 5 µL of assay buffer were added. Fluorescent polarisation values from 96 wells were used to calculate the mean and standard deviation for each data set. Z’-factors were calculated using the equation given below (sample refers to probe in the absence of protein and control refers to probe in the presence of protein). […]

“Also recorded” adds a separate entry of the source.

T1 sequence (P0DMV8 whole entry): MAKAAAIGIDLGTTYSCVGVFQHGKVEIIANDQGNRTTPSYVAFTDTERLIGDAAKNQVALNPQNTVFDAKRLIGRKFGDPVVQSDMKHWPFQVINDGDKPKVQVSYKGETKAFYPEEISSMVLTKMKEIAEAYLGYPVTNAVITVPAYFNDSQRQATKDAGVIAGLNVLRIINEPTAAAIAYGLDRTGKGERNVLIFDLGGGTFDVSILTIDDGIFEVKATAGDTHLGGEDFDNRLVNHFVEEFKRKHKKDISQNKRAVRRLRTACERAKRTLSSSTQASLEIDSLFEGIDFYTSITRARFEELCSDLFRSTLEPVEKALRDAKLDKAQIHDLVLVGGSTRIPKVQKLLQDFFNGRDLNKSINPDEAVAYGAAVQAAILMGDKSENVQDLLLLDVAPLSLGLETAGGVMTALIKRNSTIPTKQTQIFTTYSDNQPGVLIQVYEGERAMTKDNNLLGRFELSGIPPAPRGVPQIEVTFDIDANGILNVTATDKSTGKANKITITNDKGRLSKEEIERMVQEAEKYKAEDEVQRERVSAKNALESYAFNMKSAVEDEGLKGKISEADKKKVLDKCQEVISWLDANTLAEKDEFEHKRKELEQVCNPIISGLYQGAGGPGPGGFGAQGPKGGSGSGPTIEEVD
T1 sequence (Q99933 72-345 partner limits assumed): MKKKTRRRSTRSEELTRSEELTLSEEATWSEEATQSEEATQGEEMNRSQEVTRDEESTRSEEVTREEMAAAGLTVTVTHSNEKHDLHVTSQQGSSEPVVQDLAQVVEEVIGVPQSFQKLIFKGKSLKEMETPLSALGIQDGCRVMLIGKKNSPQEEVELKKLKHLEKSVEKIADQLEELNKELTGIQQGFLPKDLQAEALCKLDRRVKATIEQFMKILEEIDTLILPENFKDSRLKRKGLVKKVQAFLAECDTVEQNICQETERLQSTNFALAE
T2 sequence (P0DMV8 whole entry): as the sequence (P0DMV8 whole entry) above

With `CN(CCCC(=O)NCCCCCCNc1ncnc2c1nc(NCc1ccc3ncccc3c1)n2[C@@H]1O[C@H](COCc2ccc(C(F)(F)F)cc2)[C@@H](O)[C@H]1O)C(=O)c1ccccc1-c1c2ccc(=N)c(S(=O)(=O)O)c-2oc2c(S(=O)(=O)O)c(N)ccc12` [compound 11], the equilibrium dissociation constant (Kd) on HSP72/BAG1 complex (700 nM BAG1) was 141 nM. The “effect of BAG1 on affinity of the probe for HSP72” value at HSP72/BAG1 complex (saturating BAG1 (700 nM)) is “maintained; also recorded: no significant change”. The “Z'” value at HSP72 (FP assay with HSP72) amounted to 0.63. On HSP72 (presence vs absence of 5 μM HSP72), the “assay (binding) window” value is listed as “greater than 150 mP”.
